Results reported in patent US9708368B2, “Linear peptide antibiotics” (priority 2012, dated 2017).
In brackets after ≈: the same amount, converted by molar mass. Numbered stars: 1 amine (or outer) side, 2 acyl side, 3 side chain; on linkers, the order of the positions; unused ones are H or OH. Square brackets hold non-standard residues; d marks the D form. Peptide text beside a SMILES is read from it. * marks the point of attachment. ξ: configuration not given here. boroAla((+)-pinanediol) = C[C@H](N*)B1O[C@@H]2C[C@@H]3C[C@@H](C3(C)C)[C@]2(C)O1; Biphenylcarbonyl(4'-Bu) = CCCCc1ccc(-c2ccc(C(=O)*)cc2)cc1; X1 = C[C@H](N*)B1OC2C[C@@H]3C[C@@H](C3(C)C)[C@]2(C)O1; ξ3Amino2oxobutanoyl = CC(N[*:1])C(=O)C(=O)[*:2]; Benzoyl(4-octyl) = CCCCCCCCc1ccc(C(=O)*)cc1; X17 = O=C(/C=C/C=C/C12CC3CC(CC(C3)C1)C2)*; X15 = CCCCCCN1CCC(c2ccc(C(=O)*)cc2)CC1; X4 = CCCCc1ccc(-c2c[nH]c(C(=O)*)c2)cc1; X13 = CCCCN1CCC(c2ccc(C(=O)*)cc2)CC1; X19 = O=C(CCCCC12CC3CC(CC(C3)C1)C2)*; X21 = CCCCc1ccc(-c2ncc(C(=O)*)s2)cc1; X6 = C[C@@H](N*)C(=O)C(N)=O; X8 = C[C@H](N*)C(=O)C(N)=O; 4Amb = NCc1ccc(C(=O)O)cc1; Dab = NCC[C@H](N)C(=O)O; Dap = NC[C@H](N)C(=O)O; X14 = CCCCc1ccc(*)cc1; ξK = NCCCCC(N)C(=O)O; βAla = NCCC(=O)O

Tests used:
[1] = test system: Escherichia coli strain MC4100 IMP-4213, which harbors an LptD mutation; settings: Method B; E. coli MC4100 IMP-4213 (LptD mutation); 35° C., 22 hours
Summary of the method: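 Two-fold serial dilutions of compound inoculated at final OD600 0.0005, incubated static at 35 °C for 22 h, and growth read visually.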

[2] = test system: methicillin resistant Staphylococcus aureus (MRSA) strain USA300 (NRS384); settings: Method B, 35° C., 22 hours
S. aureus SPase = S. aureus SPase (Staphylococcus aureus, UniProt P0A070); experiment: biochemical
Sequence of S. aureus SPase (P0A070 whole entry): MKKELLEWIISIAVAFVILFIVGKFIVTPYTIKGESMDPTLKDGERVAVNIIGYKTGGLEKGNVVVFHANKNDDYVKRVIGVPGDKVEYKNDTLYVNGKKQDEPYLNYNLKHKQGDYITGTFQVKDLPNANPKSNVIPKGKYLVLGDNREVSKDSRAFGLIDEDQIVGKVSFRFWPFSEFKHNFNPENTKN

E. coli SPase = E. coli SPase (Escherichia coli, UniProt P00803); experiment: Biochemical SPase activity assay (fluorogenic peptide substrate), E. coli enzyme
Sequence of E. coli SPase (P00803 whole entry): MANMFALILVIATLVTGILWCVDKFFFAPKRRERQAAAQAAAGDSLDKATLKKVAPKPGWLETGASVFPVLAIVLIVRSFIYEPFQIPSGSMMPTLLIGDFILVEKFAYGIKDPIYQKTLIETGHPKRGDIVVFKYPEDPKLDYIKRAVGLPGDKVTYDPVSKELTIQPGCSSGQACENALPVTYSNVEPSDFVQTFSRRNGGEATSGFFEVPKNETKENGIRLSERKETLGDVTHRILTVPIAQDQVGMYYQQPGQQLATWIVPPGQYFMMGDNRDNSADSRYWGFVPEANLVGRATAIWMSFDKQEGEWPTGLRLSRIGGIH

SMILES	MIC (μg/mL) E. coli [1] [µg/mL]	MIC (μg/mL) S. aureus [2] [µg/mL]	IC50 (S. aureus SPase) [nM]	IC50 (E. coli SPase) [nM]
CCCCCCCCc1ccc(C(=O)N[C@@H](CCN)C(=O)N[C@H](C(=O)N[C@@H](C)C(=O)N[C@@H](CCCCN)C(=O)N[C@@H](C)B2OC3C[C@@H]4C[C@@H](C4(C)C)[C@]3(C)O2)[C@@H](C)O)cc1 (some centres unmarked) [Compound 232] ({Benzoyl(4-octyl)}-[Dab]TAK-X1)	0.25 (≈ 0.298 µM)	0.31 (≈ 0.369 µM)	140	5
CCCCc1ccc(-c2ccc(C(=O)N[C@@H](CCN)C(=O)N[C@H](C(=O)N[C@@H](C)C(=O)N[C@@H](CCCCN)C(=O)N[C@@H](C)B3OC4C[C@@H]5C[C@@H](C5(C)C)[C@]4(C)O3)[C@@H](C)O)nc2)cc1 (some centres unmarked) [Compound 233]	1 (≈ 1.16 µM)	0.5 (≈ 0.581 µM)	220	29
CCCCc1ccc(-c2ccc(C(=O)N[C@@H](CCN)C(=O)N[C@H](C(=O)N[C@@H](C)C(=O)N[C@@H](CCCCN)C(=O)N[C@@H](C)B3OC4C[C@@H]5C[C@@H](C5(C)C)[C@]4(C)O3)[C@@H](C)O)cn2)cc1 (some centres unmarked) [Compound 234]	0.5 (≈ 0.581 µM)	0.4 (≈ 0.465 µM)	53	8.3
C[C@H](NC(=O)[C@H](CCCCN)NC(=O)[C@H](C)NC(=O)[C@@H](NC(=O)[C@H](CCN)NC(=O)c1ccc(-c2ccccc2C(F)(F)F)cc1)[C@@H](C)O)B1OC2C[C@@H]3C[C@@H](C3(C)C)[C@]2(C)O1 (some centres unmarked) [Compound 236]	8 (≈ 9.18 µM)	2 (≈ 2.29 µM)	130	28
C[C@H](NC(=O)[C@H](CCCCN)NC(=O)[C@H](C)NC(=O)[C@@H](NC(=O)[C@H](CCN)NC(=O)c1ccc(-c2ccc(C(F)(F)F)cc2)cc1)[C@@H](C)O)B1OC2C[C@@H]3C[C@@H](C3(C)C)[C@]2(C)O1 (some centres unmarked) [Compound 237]	2 (≈ 2.29 µM)	0.71 (≈ 0.814 µM)	210	16
C[C@H](NC(=O)[C@H](CCCCN)NC(=O)[C@H](C)NC(=O)[C@@H](NC(=O)[C@H](CCN)NC(=O)CCCCC12CC3CC(CC(C3)C1)C2)[C@@H](C)O)B1OC2C[C@@H]3C[C@@H](C3(C)C)[C@]2(C)O1 (some centres unmarked) [Compound 239] (X19-[Dab]TAK-X1)	2 (≈ 2.38 µM)	0.71 (≈ 0.843 µM)	670	17
C[C@H](NC(=O)[C@H](CCCCN)NC(=O)[C@H](C)NC(=O)[C@@H](NC(=O)[C@H](CCN)NC(=O)/C=C/C=C/C12CC3CC(CC(C3)C1)C2)[C@@H](C)O)B1O[C@@H]2C[C@@H]3C[C@@H](C3(C)C)[C@]2(C)O1 [Compound 240] (X17-[Dab]TAK-{boroAla((+)-pinanediol)})	4 (≈ 4.77 µM)	0.71 (≈ 0.847 µM)	88	28
CCCCc1ccc(-c2ccc(C(=O)N[C@@H](CCN)C(=O)N[C@H](C(=O)N[C@@H](C)C(=O)N[C@@H](CCCCN)C(=O)N[C@@H](C)B3OC4C[C@@H]5C[C@@H](C5(C)C)[C@]4(C)O3)[C@@H](C)O)c(C)c2)cc1 (some centres unmarked) [Compound 241]	0.18 (≈ 0.206 µM)	0.25 (≈ 0.286 µM)	42	2.1
CCCCc1ccc(-c2cnc(C(=O)N[C@@H](CCN)C(=O)N[C@H](C(=O)N[C@@H](C)C(=O)N[C@@H](CCCCN)C(=O)N[C@@H](C)B3OC4C[C@@H]5C[C@@H](C5(C)C)[C@]4(C)O3)[C@@H](C)O)nc2)cc1 (some centres unmarked) [Compound 242]	11 (≈ 12.8 µM)	1.4 (≈ 1.62 µM)	54	21
CCCCc1ccc(-c2ccc(CC(=O)N[C@@H](CCN)C(=O)N[C@H](C(=O)N[C@@H](C)C(=O)N[C@@H](CCCCN)C(=O)N[C@@H](C)B3OC4C[C@@H]5C[C@@H](C5(C)C)[C@]4(C)O3)[C@@H](C)O)cc2)cc1 (some centres unmarked) [Compound 243]	2 (≈ 2.29 µM)	0.5 (≈ 0.572 µM)	80	10
CCCCN1CCC(c2ccc(C(=O)N[C@@H](CCN)C(=O)N[C@H](C(=O)N[C@@H](C)C(=O)N[C@@H](CCCCN)C(=O)N[C@@H](C)B3O[C@@H]4C[C@@H]5C[C@@H](C5(C)C)[C@]4(C)O3)[C@@H](C)O)cc2)CC1 [Compound 244] (X13-[Dab]TAK-{boroAla((+)-pinanediol)})	64 (≈ 73.8 µM)	45 (≈ 51.9 µM)	1100	350
CCCCCCN1CCC(c2ccc(C(=O)N[C@@H](CCN)C(=O)N[C@H](C(=O)N[C@@H](C)C(=O)N[C@@H](CCCCN)C(=O)N[C@@H](C)B3O[C@@H]4C[C@@H]5C[C@@H](C5(C)C)[C@]4(C)O3)[C@@H](C)O)cc2)CC1 [Compound 246] (X15-[Dab]TAK-{boroAla((+)-pinanediol)})	64 (≈ 71.5 µM)	23 (≈ 25.7 µM)	290	55
CCCCc1ccc(-c2c[nH]c(C(=O)N[C@@H](CCN)C(=O)N[C@H](C(=O)N[C@@H](C)C(=O)N[C@@H](CCCCN)C(=O)N[C@@H](C)B3O[C@@H]4C[C@@H]5C[C@@H](C5(C)C)[C@]4(C)O3)[C@@H](C)O)c2)cc1 [Compound 247] (X4-[Dab]TAK-{boroAla((+)-pinanediol)})	0.5 (≈ 0.589 µM)	0.5 (≈ 0.589 µM)	110	17
CCCCc1ccc(-c2ncc(C(=O)N[C@@H](CCN)C(=O)N[C@H](C(=O)N[C@@H](C)C(=O)N[C@@H](CCCCN)C(=O)N[C@@H](C)B3OC4C[C@@H]5C[C@@H](C5(C)C)[C@]4(C)O3)[C@@H](C)O)s2)cc1 (some centres unmarked) [Compound 248] (X21-[Dab]TAK-X1)	0.25 (≈ 0.288 µM)	0.25 (≈ 0.288 µM)	170	11
CCCCc1ccc(Nc2ccc(C(=O)N[C@@H](CCN)C(=O)N[C@H](C(=O)N[C@@H](C)C(=O)N[C@@H](CCCCN)C(=O)N[C@@H](C)B3OC4C[C@@H]5C[C@@H](C5(C)C)[C@]4(C)O3)[C@@H](C)O)cc2)cc1 (some centres unmarked) [Compound 249]	1 (≈ 1.14 µM)	0.35 (≈ 0.4 µM)	160	17
CCCCc1ccc(NCc2ccc(C(=O)N[C@@H](CCN)C(=O)N[C@H](C(=O)N[C@@H](C)C(=O)N[C@@H](CCCCN)C(=O)N[C@@H](C)B3OC4C[C@@H]5C[C@@H](C5(C)C)[C@]4(C)O3)[C@@H](C)O)cc2)cc1 (some centres unmarked) [Compound 250] ({X14-4Amb}-[Dab]TAK-X1)	0.71 (≈ 0.799 µM)	0.35 (≈ 0.394 µM)	110	8.4
CCCCc1ccc(-c2ccc(C(=O)NCCC(=O)N[C@@H](CCCCN)C(=O)N[C@H](C(=O)N[C@@H](C)C(=O)N[C@@H](CC(N)=O)C(=O)NC(C)C(=O)C(=O)NC)[C@@H](C)O)cc2)cc1 (some centres unmarked) [Compound 252] ({Biphenylcarbonyl(4'-Bu)-βAla}-KTAN[ξ3Amino2oxobutanoyl]-NHMe)	>64	5 (≈ 5.87 µM)	8.7	3000
CCCCc1ccc(-c2ccc(C(=O)NC(CCCCN)C(=O)N[C@@H](CCCCN)C(=O)N[C@@H](C)C(=O)N[C@@H](CC(C)C)C(=O)N[C@@H](C)C(=O)C(N)=O)cc2)cc1 (some centres unmarked) [Compound 253] ({Biphenylcarbonyl(4'-Bu)}-[ξK]KAL-X8)	11 (≈ 13.9 µM)	8 (≈ 10.1 µM)	2100	4800
CCCCc1ccc(-c2ccc(C(=O)N[C@@H](CCCCN)C(=O)N[C@@H](CCCCN)C(=O)N[C@@H](C)C(=O)N[C@@H](CC(C)C)C(=O)N[C@H](C)C(=O)C(N)=O)cc2)cc1 [Compound 254] ({Biphenylcarbonyl(4'-Bu)}-KKAL-X6)	11 (≈ 13.9 µM)	8 (≈ 10.1 µM)	660	1200
CCCCc1ccc(-c2ccc(C(=O)N[C@@H](CN)C(=O)N[C@@H](CCC(=O)N[C@H](CC(=O)O)C(=O)O)C(=O)N[C@@H](C)C(=O)N[C@@H](CCCCN)C(=O)N[C@@H](C)B3OC4C[C@@H]5C[C@@H](C5(C)C)[C@]4(C)O3)cc2)cc1 (some centres unmarked) [Compound 259] ({Biphenylcarbonyl(4'-Bu)}-[Dap]E(dD)AK-X1)	4 (≈ 4.04 µM)	11 (≈ 11.1 µM)	32	2.6
CCCCc1ccc(-c2ccc(C(=O)N[C@@H](CN)C(=O)N[C@@H](CCC(=O)N[C@H](C)C(=O)O)C(=O)N[C@@H](C)C(=O)N[C@@H](CCCCN)C(=O)N[C@@H](C)B3O[C@@H]4C[C@@H]5C[C@@H](C5(C)C)[C@]4(C)O3)cc2)cc1 [Compound 260] ({Biphenylcarbonyl(4'-Bu)}-[Dap]E(dA)AK-{boroAla((+)-pinanediol)})	1 (≈ 1.06 µM)	4 (≈ 4.23 µM)	83	5.6
CCCCc1ccc(-c2ccc(C(=O)N[C@@H](CCCCN)C(=O)N[C@@H](CCC(=O)OCC)C(=O)N[C@@H](C)C(=O)N[C@@H](CCCCN)C(=O)N[C@@H](C)B3O[C@@H]4C[C@@H]5C[C@@H](C5(C)C)[C@]4(C)O3)cc2)cc1 [Compound 261] ({Biphenylcarbonyl(4'-Bu)}-KE(OEt)AK-{boroAla((+)-pinanediol)})	0.79 (≈ 0.837 µM)	0.71 (≈ 0.752 µM)	280	41
CCCCc1ccc(-c2ccc(OC(=O)N[C@@H](CCCCN)C(=O)N[C@H](C(=O)N[C@@H](C)C(=O)N[C@@H](CC(N)=O)C(=O)N[C@@H](C)B3OC4C[C@@H]5C[C@@H](C5(C)C)[C@]4(C)O3)[C@@H](C)O)cc2)cc1 (some centres unmarked) [Compound 262]	8 (≈ 8.99 µM)	2.8 (≈ 3.15 µM)	15	37
